Experimental data published in patent US10925854B2, “Methods and compositions for preventing or treating fatty liver, protecting liver function or ameliorating liver diseases caused by fatty liver or other associated disorders” (SINEW PHARMA INC., priority 2015, dated 2021).

What was measured:
[1] = Abdominal fat weight, liver weight and increase of body weight in high fat feed mice; assay type: in vivo, B6 mice; conditions: fatty liver mice
Experimental: (§1) B6 mice recommended in the specification “Method for evaluating the liver protection and health care efficacies of health food” announced by the Department of Health were chosen for animal testing. More than four (4) mice were used in each group of the pre-test, while more than twelve (12) mice were used in each group of the confirmatory test. Male mice bred at 23±2° C. in an animal room with 55±15% relative humidity under normal light/dark cycle (7:00 AM-7:00 PM lights on/7:00 PM-7:00 AM lights off) and weighing 18-23 g were purchased from BioLASCO (Taipei) and housed at Laboratory Animal Center in National Defense Medical Center. The animal test was carried out according to the guideline for animal experiment of National Health Research Institutes. Mice were fed with normal feed at 3-5 g/day and unlimited supply of water for 1-2 weeks and investigated for health condition. The weight of mice was recorded once a week.
(§2) The tested animals were grouped randomly into Blank, High Fat Diet control (HFD), Positive Control (PS), and Test group. The animals of Blank were fed with normal feed. The animals of HFD were fed with high fat feed. The animals of PS were fed with high fat feed, and additionally fed with silymarin (5 mg/kg/day) by a tube. The animals of Test group were fed with high fat feed, and additionally force-fed with test compounds by a tube.
The animals of Blank were fed casually with normal feed for 12 weeks, while the animals of HFD, PS, and Test group were fed casually with high fat feed for 12 weeks. […]
In addition, abdominal fat and liver specimens were taken from the abdomens of sacrificed mice and weighted to compare the weight of fat and liver and obtain a ratio of liver weight to body weight. […] Furthermore, the liver function of animals of each group were analyzed by Galactose Single Point Method, which was recognized and recommended for quantification of remaining liver function in clinical use by U.S. FDA and Ministry of Health and Welfare, Taiwan. […]

[2] = test system: B6 mice fed with high fat feed (fatty liver); experiment: Liver histopathology (H&E) and NAS score in mice with induced fatty liver; assay type: in vivo; conditions: for large vesicular fat droplets within liver cells in liver tissue section: H&E sections, treatment for 4 weeks (FIG. 1); for effect on liver damages (NAS, in words): fatty liver mice
Experimental: as §1, §2
(§3) The animals of Blank were fed casually with normal feed for 12 weeks, while the animals of HFD, PS, and Test group were fed casually with high fat feed for 12 weeks. After 8 weeks of feeding, the animals of Blank and HFD were fed with deionized water by a tube once a day; the animals of PS were fed with silymarin by a tube once a day; and the animals of Test Group were fed with test compounds by a tube once a day for a duration of 4 or 8 weeks.
At the end of the test, all mice were sacrificed. One tissue block with a volume of approximately 1 cm^3 was cut from the largest right lobe of liver, fixed in 10% neutral formalin, and then dehydrated and hyalinized in various concentrations of ethanol (30, 50, 70, 95, 99.5%) and xylene. Afterwards, xylene was replaced with hot paraffin solution. At last, the tissue was embedded with paraffin solution. The finished paraffin specimen was cut into 5 pun-thickness paraffin sections by the microtome. The sections were pasted on clean slides, dried at 37° C., and then stained by H&E staining.
Liver tissue sections were deparaffinized in xylene for 30 minutes, and then successively rehydrated in 99.5%, 95%, 70%, 50%, and 30% ethanol for 30 minutes, respectively. After being soaked in distilled water for 10 minutes, the sections could be stained. The sections were first immersed in hematoxylin for 30 seconds to stain cell nuclei, then washed with distilled water for a few minutes, stained with eosin for 2-5 minutes, and washed with distilled water for a few minutes again. […]
In order to observe the changes of lesion, fat accumulation, necrosis, or fibrosis in liver cells when there was an ongoing liver damage, liver tissues were H&E stained to evaluate the degree of liver fat accumulation. […] As for the assessment of semi-quantitative analysis in pathology, it had to be confirmed by a physician or a veterinary pathologist who conducted a double-blind analysis to score (NAS score)^16 and compare all the sections without knowing the test design. […]

[3] = test system: B6 mice fed with high fat feed (fatty liver); experiment: Liver lipids (TG, TC in liver) in mice with induced fatty liver; assay type: in vivo
Experimental: as §1, §2, §3
In addition, abdominal fat and liver specimens were taken from the abdomens of sacrificed mice and weighted to compare the weight of fat and liver and obtain a ratio of liver weight to body weight. Two tissue blocks with a volume of approximately 1 cm^3 were cut from the largest right lobe of liver, fixed in 10% neutral formalin solution, and then embedded with paraffin for sectioning and H&E staining for histopathological observation. Moreover, the rest of the liver was frozen for preservation and detection of the contents of triglyceride and total cholesterol in the liver. Furthermore, the liver function of animals of each group were analyzed by Galactose Single Point Method, which was recognized and recommended for quantification of remaining liver function in clinical use by U.S. FDA and Ministry of Health and Welfare, Taiwan. At the end of the tests, 0.5 g of galactose (G.S.P.® 0.4 g/mL) per kg of animal was administered via intravenous. One hour after the administration, about 0.5 ml of whole blood was taken by using a filter paper to evaluate liver function of mice. The higher the value of GSP was, the worse the remaining liver function would be (FDA: “Guidance for Industry: Pharmacokinetics in Patients with Impaired. Hepatic Function—Study Design, Data Analysis and Impact on Dosing and. Labeling. 2003).

[4] = test system: B6 mice fed with high fat feed (fatty liver); experiment: Serum ALT and AST (liver dysfunction) in mice with induced fatty liver; assay type: in vivo
Experimental: as §1, §2, §3
Before testing and in the eighth (8th), twelfth (12th), and sixteenth (16th) week after testing, blood was collected from the cheek or the heart. At the end of testing, all mice were weighted and then sacrificed, and blood was collected from the cheek or the heart simultaneously. The blood specimens of mice was placed at room temperature for one hour to clot, and then the serum was separated by centrifugation in a refrigeration centrifuge at 15,700×g at 4° C. for 5 minutes. Afterwards, biochemical indices of liver function, including aspartate transaminase (AST), alanine aminotransferase (ALT), triglyceride (TG), total cholesterol (TCHO/TC), low-density lipoprotein cholesterol (LDL-C), and high-density lipoprotein cholesterol (HDL-C), were detected by the automatic blood biochemistry analyzer.

[5] = test system: HepG2 fatty liver cells (induced with oleic acid); experiment: Reduction of TG content in oleic acid-induced HepG2 fatty liver cells; assay type: cell-based, human; conditions: Homo sapiens, 72 h; tested substances 1.0 uM, fatty liver cells from HepG2; read-out: TG reduction rate
Experimental: The activity of the various compounds of the present invention in reduction of fat content was analyzed by using human hepatoma cell line Hep G2.
HepG2 cell lines (15×10^6 cells) were cultured in DMEM culture No. B, incubated in an incubator with 5% CO2 at 37° C. for 24 hours, cultured in DMEM culture No. C (serum-free medium) for 24 hours, and finally cultured in DMEM culture No. D (containing oleate/albumin complex) for another 48 hours to induce HepG2 cell lines to form fatty liver cells.
HepG2 cell lines were divided into six groups, including: (1) Blank: no treatment; (2) DMSO group: cells from Blank were treated with dimethyl sulfoxide (DMSO); (3) Control: induction with oleic acid to form fatty liver cells; (4) Vehicle group: fatty liver cells formed by induction with oleic acid were treated with DMSO; (5) Positive control: fatty liver cells were treated with silymarin; and (6) Test Group: fatty liver cells were treated with various compounds of the present invention.
After incubation for 72 hours, the treated cells from each group were successively washed twice with PBS, and then incubated with 0.5 ml of trypsin/EDTA for 3 minutes. Afterwards, the cells were scraped with 2 ml of PBS and then transferred to the centrifuge tube to be shattered by ultrasonic. 20 μl of the cell extracts was taken to determine the content of protein. TG determination was performed using commercially available combination of agents (Randox). The TG content obtained above was divided by the protein content to obtain a ratio, representing a relative TG content in the cells.
The equation for calculating reduction rate (%) of TG was as follows: [1−(TG content of Test Group−TG content of Blank)/(TG content of Oleic acid induction Group−TG content of Blank)]×100%.

[6] = test system: B6 mice fed with high fat feed (fatty liver); experiment: Liver antioxidant capacity (Gpx, GSH, Grd, SOD) in mice with induced fatty liver; assay type: in vivo; conditions: for effect on liver antioxidant activity (in words): fatty liver mice
Experimental: as §1, §2, §3
About 0.1 g of liver tissue was taken from the sacrificed animal and homogenized by centrifuge with a biomasher for 10 minutes. A 9-fold weight (w/w) of buffer (pH 7.4, 50 mmol/L Tris-HCl, 180 mmol/L KCl) was added to the homogenized tissue, which was then mixed well by a Vortex mixer for subsequent use. The resulting homogenization solution samples of liver tissue was used for the analysis of various members of liver antioxidant systems, including glutathione peroxidase (GPx), glutathione (GSH), glutathione reductase (Grd), and superoxide dismutase (SOD). Methods of related analysis can be found in the known literatures, for example, the draft of “Method for evaluating the liver protection and health care efficacies of health food” announced by the Ministry of Health and Welfare, Taiwan.

| Structure (SMILES) | effect on weight of abdominal fat (in words) [1] | large vesicular fat droplets within liver cells in liver tissue section [2] | effect on TC in liver (in words) [3] | effect on TG in liver (in words) [3] | effect on ALT and AST values (in words) [4] | inhibition at 1 µM [5] [%] | effect on liver damages (NAS, in words) [2] | effect on liver antioxidant activity (in words) [6] | Gpx, GSH, Grd, and SOD levels (in words) ([6]; 4-week treatment) |
| --- | --- | --- | --- | --- | --- | --- | --- | --- | --- |
| CC1CCC(C(C)C)C(O)C1 (stereo not drawn) [menthol] | reduces the weight of abdominal fat in animals significantly | significantly reduced | reduces TC in liver significantly | reduces TG in liver significantly | can significantly reduce ALT and AST values | 66.2 ± 1.87 | – | – | – |
| O=C1C[C@@H](c2ccc(O)c(O)c2)Oc2cc(O)cc(O)c21 [eriodictyol] | – | significantly reduced | reduces TC in liver significantly | reduces TG in liver significantly | can significantly reduce ALT and AST values | 35.1 ± 0.87 | can significantly reduce liver damages | can significantly enhance antioxidant activity | – |
| OC[C@@H](O)[C@@H](O)[C@H](O)[C@H](O)CO [mannitol] | reduces the weight of abdominal fat in animals significantly | significantly reduced | reduces TC in liver significantly | reduces TG in liver significantly | can significantly reduce ALT and AST values | 22.4 ± 5.74 | can significantly reduce liver damages | can significantly enhance antioxidant activity | substantial increases |
| OC[C@H]1O[C@H](O[C@]2(CCl)O[C@H](CCl)[C@@H](O)[C@@H]2O)[C@H](O)[C@@H](O)[C@H]1Cl [sucralose] | reduces the weight of abdominal fat in animals significantly | – | reduces TC in liver significantly | reduces TG in liver significantly | can significantly reduce ALT and AST values | 26.7 ± 2.93 | – | – | – |
| COc1ccc([C@@H]2CC(=O)c3c(O)cc(O)cc3O2)cc1O [hesperitin] | – | – | reduces TC in liver significantly | reduces TG in liver significantly | can significantly reduce ALT and AST values | 16.1 ± 5.55 | – | can significantly enhance antioxidant activity | – |
| O=C1NS(=O)(=O)c2ccccc21 [saccharin] | – | – | reduces TC in liver significantly | – | can significantly reduce ALT and AST values | 17.5 ± 6.96 | – | – | – |
| O=c1c(-c2ccc(O)cc2)coc2c([C@@H]3O[C@H](CO)[C@@H](O)[C@H](O)[C@H]3O)c(O)ccc12 [puerarin] | – | – | – | reduces TG in liver significantly | can significantly reduce ALT and AST values | 49.9 ± 7.73 | – | can significantly enhance antioxidant activity | – |
